The source made the active and inactive calls. No cut-off for these calls is given here.
Legend:
Mus musculus [1] = assay: (§1) In vivo inhibition of MAPK activation in LPS-induced BALB/c mouse model of […] assessed as inhibition of JNK phosphorylation preadministered orally with compound for 3 days followed by LPS stimulation for 6 hrs after 1 hrs compound administration on day 3 by Western blot analysis; format: functional; settings: dose 5-20 mg/kg, route po, time 3.0 day
RAW264.7 [2] = assay: Inhibition of NFkappaB signaling pathway in LPS-stimulated mouse RAW264.7 cells assessed as decrease in NFkappaB protein level at 2.5 to 10 uM by Western blot analysis; format: cell-based; settings: dose 2.5-10 µM
Mus musculus [3] = assay: (§2) Anti-inflammatory activity in LPS-induced BALB/c mouse model of […] assessed as inhibition of LPS-induced increase in IL-6 expression in serum at 5 to 20 mg/kg, po preadministered with compound for 3 days followed by LPS stimulation for 6 hrs after 1 hrs compound administration on day 3 by ELISA; format: functional, organism-based; settings: dose 5-20 mg/kg, time 3.0 day
Mus musculus [4] = assay: In vivo inhibition of MAPK activation in LPS-induced BALB/c mouse model of […] assessed as inhibition of ERK phosphorylation preadministered orally with compound for 3 days followed by LPS stimulation for 6 hrs after 1 hrs compound administration on day 3 by Western blot analysis; format: functional; settings: dose 5-20 mg/kg, route po, time 3.0 day
RAW264.7 [5] = assay: Cytotoxicity against mouse RAW264.7 cells assessed as reduction in cell viability at 30 uM incubated for 24 hrs by MTT assay relative to control; format: toxicity, cell-based; settings: raw264.7, 24 h
Mus musculus [6] = assay: Anti-inflammatory activity in LPS-induced BALB/c mouse model of […] assessed as inhibition of COX-2 expression preadministered orally with compound for 3 days followed by LPS stimulation for 6 hrs after 1 hrs compound administration on day 3 by Western blot analysis; format: functional, organism-based; settings: dose 5-20 mg/kg, route po, time 3.0 day
RAW264.7 [7] = assay: Inhibition of MAPK signaling pathway in LPS-stimulated mouse RAW264.7 cells assessed as decrease in phosphorylation of ERK at 2.5 to 10 uM by Western blot analysis; format: cell-based; settings: dose 2.5-10 µM
Mus musculus [8] = assay: as §1, with “NLRP3 inflammasome” for “MAPK”, “reduction in NLRP3 expression” for “inhibition of JNK phosphorylation”; format: functional; settings: dose 5-20 mg/kg, route po, time 3.0 day
RAW264.7 [9] = assay: Inhibition of NFkappaB signaling pathway in LPS-stimulated mouse RAW264.7 cells assessed as decrease in IkappaBalpha protein level at 2.5 to 10 uM by Western blot analysis; format: cell-based; settings: dose 2.5-10 µM
RAW264.7 [10] = assay: cells; settings: Mus musculus
Description: Anti-inflammatory activity in mouse RAW264.7 cells assessed as inhibition of LPS-induced IL-6 production preincubated with compound for 1 hrs followed by LPS stimulation and measured after 23 hrs by ELISA

[11] = molecular target: NACHT, LRR and PYD domains-containing protein 3 (Mus musculus) (UniProt Q8R4B8); assay: Inhibition of NLRP3 inflammasome activation in LPS-stimulated mouse RAW264.7 cells assessed as decrease in caspase-1 expression at 2.5 to 10 uM by Western blot analysis; format: cell-based; settings: dose 2.5-10 µM
Sequence of NACHT, LRR and PYD domains-containing protein 3 (Mus musculus) (Q8R4B8 whole entry, the tested form may be a part): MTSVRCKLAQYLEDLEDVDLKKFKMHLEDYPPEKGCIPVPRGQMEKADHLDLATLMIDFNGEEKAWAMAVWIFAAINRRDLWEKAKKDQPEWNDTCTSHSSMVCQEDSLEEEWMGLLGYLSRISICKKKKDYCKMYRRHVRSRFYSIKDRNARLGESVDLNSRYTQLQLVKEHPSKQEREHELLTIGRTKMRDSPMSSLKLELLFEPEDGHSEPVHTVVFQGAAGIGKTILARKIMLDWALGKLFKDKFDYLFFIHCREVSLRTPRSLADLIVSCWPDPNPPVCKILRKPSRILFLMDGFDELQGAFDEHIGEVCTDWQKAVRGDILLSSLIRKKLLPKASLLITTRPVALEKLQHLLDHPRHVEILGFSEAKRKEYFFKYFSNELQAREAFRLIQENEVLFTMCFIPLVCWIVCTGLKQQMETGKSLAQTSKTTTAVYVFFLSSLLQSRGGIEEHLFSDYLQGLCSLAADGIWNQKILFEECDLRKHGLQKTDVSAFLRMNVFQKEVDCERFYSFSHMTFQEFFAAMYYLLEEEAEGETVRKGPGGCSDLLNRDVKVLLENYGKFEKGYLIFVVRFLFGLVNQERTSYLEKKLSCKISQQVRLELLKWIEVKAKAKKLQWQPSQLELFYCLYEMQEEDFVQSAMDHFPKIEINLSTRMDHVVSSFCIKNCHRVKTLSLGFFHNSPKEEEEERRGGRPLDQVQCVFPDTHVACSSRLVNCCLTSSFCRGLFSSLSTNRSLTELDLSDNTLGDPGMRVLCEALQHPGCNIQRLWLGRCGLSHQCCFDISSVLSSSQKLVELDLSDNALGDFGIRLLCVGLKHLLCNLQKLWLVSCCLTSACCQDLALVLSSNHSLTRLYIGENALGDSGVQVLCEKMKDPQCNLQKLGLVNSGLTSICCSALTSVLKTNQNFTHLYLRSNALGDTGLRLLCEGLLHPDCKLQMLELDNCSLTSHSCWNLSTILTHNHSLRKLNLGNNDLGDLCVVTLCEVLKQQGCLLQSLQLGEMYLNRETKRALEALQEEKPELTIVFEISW

Mus musculus [12] = assay: as §1, with “NLRP3 inflammasome” for “MAPK”, “reduction in caspase-1 expression” for “inhibition of JNK phosphorylation”; format: functional; settings: dose 5-20 mg/kg, route po, time 3.0 day
[13] = molecular target: NACHT, LRR and PYD domains-containing protein 3 (Mus musculus) (UniProt Q8R4B8); assay: Inhibition of NLRP3 inflammasome activation in LPS-stimulated mouse RAW264.7 cells assessed as downregulation of IL-1beta expression by Western blot analysis; format: cell-based; settings: dose 2.5-10 µM
RAW264.7 [14] = assay: Anti-inflammatory activity in LPS-stimulated mouse RAW264.7 cells assessed as inhibition of ROS production at 2.5 to 10 uM preincubated with compound for 1 hrs followed by LPS stimulation and measured after 23 hrs by DCFH-DA staining based flow cytometric analysis; format: functional, cell-based; settings: dose 2.5-10 µM, time 24.0 hrs
RAW264.7 [15] = assay: Anti-inflammatory activity in LPS-stimulated mouse RAW264.7 cells assessed as inhibition of ROS production preincubated with compound for 1 hrs followed by LPS stimulation and measured after 23 hrs by DCFH-DA staining based confocal laser microscopic analysis; format: functional, cell-based; settings: dose 2.5-10 µM, time 24.0 hrs
RAW264.7 [16] = assay: Anti-inflammatory activity in LPS-stimulated mouse RAW264.7 cells assessed as reduction in COX-2 expression by Western blot analysis; format: functional, cell-based; settings: dose 2.5-10 µM
RAW264.7 [17] = assay: cells; settings: Mus musculus; remark: listed apart in the source
Description: Anti-inflammatory activity in mouse RAW264.7 cells assessed as inhibition of LPS-induced NO production preincubated with compound for 1 hrs followed by LPS stimulation and measured after 23 hrs by Griess reagent based method

[18] = Cytotoxicity against mouse RAW264.7 cells assessed as inhibition of cell growth incubated for 24 hrs by MTT assay; format: toxicity, cell-based
Mus musculus [19] = assay: (§3) Anti-inflammatory activity in LPS-induced BALB/c mouse model of […] assessed as inhibition of LPS-induced increase in lung W/D ratio at 5 to 20 mg/kg, po preadministered with compound for 3 days followed by LPS stimulation for 6 hrs after 1 hrs compound administration on day 3; format: functional, organism-based; settings: dose 5-20 mg/kg, time 3.0 day
RAW264.7 [20] = assay: Inhibition of MAPK signaling pathway in LPS-stimulated mouse RAW264.7 cells assessed as decrease in phosphorylation of JNK at 2.5 to 10 uM by Western blot analysis; format: cell-based; settings: dose 2.5-10 µM
Mus musculus [21] = assay: (§4) Anti-inflammatory activity in LPS-induced BALB/c mouse model of […] assessed as attenuation of inflammatory cell infiltration in lungs at 5 to 20 mg/kg, po preadministered with compound for 3 days followed by LPS stimulation for 6 hrs after 1 hrs compound administration on day 3 by H&E staining based analysis; format: functional, organism-based; settings: dose 5-20 mg/kg, time 3.0 day
RAW264.7 [22] = assay: Anti-inflammatory activity in LPS-stimulated mouse RAW264.7 cells assessed as reduction in iNOS expression by Western blot analysis; format: functional, cell-based; settings: dose 2.5-10 µM
Mus musculus [23] = assay: as §2, with “TNF-alpha” for “IL-6”; format: functional, organism-based; settings: dose 5-20 mg/kg, time 3.0 day
Mus musculus [24] = assay: as §2, with “BALF” for “serum”; format: functional, organism-based; settings: dose 5-20 mg/kg, time 3.0 day
RAW264.7 [25] = assay: Inhibition of MAPK signaling pathway in LPS-stimulated mouse RAW264.7 cells assessed as decrease in phosphorylation of p38 MAPK at 2.5 to 10 uM by Western blot analysis; format: cell-based; settings: dose 2.5-10 µM
Mus musculus [26] = assay: In vivo inhibition of MAPK activation in LPS-induced BALB/c mouse model of […] assessed as inhibition of p38 MAPK phosphorylation preadministered orally with compound for 3 days followed by LPS stimulation for 6 hrs after 1 hrs compound administration on day 3 by Western blot analysis; format: functional; settings: dose 5-20 mg/kg, route po, time 3.0 day
Mus musculus [27] = assay: as §3, with “increase in NO production in BALF at 5” for “increase in lung W/D ratio at 5”, “day 3 by Griess reagent based method” for “day 3”; format: functional, organism-based; settings: dose 5-20 mg/kg, time 3.0 day
RAW264.7 [28] = assay: cells; settings: Mus musculus; remark: listed apart in the source
Description: Anti-inflammatory activity in mouse RAW264.7 cells assessed as inhibition of LPS-induced TNF-alpha production preincubated with compound for 1 hrs followed by LPS stimulation and measured after 23 hrs by ELISA

Mus musculus [29] = assay: (§5) In vivo inhibition of NFkappaB activation in LPS-induced BALB/c mouse model of […] assessed as inhibition of NFkappaB degradation preadministered orally with compound for 3 days followed by LPS stimulation for 6 hrs after 1 hrs compound administration on day 3 by Western blot analysis; format: functional; settings: dose 5-20 mg/kg, route po, time 3.0 day
Mus musculus [30] = assay: as §5, with “inhibition of IkappaBalpha degradation preadministered” for “inhibition of NFkappaB degradation preadministered”; format: functional; settings: dose 5-20 mg/kg, route po, time 3.0 day
Mus musculus [31] = assay: as §2, with “NO production” for “IL-6 expression”, “Griess reagent based method” for “ELISA”; format: functional, organism-based; settings: dose 5-20 mg/kg, time 3.0 day
Mus musculus [32] = assay: as §4, with “lung alveolar hemorrhage” for “inflammatory cell infiltration in lungs”; format: functional, organism-based; settings: dose 5-20 mg/kg, time 3.0 day
Mus musculus [33] = assay: as §5, with “NLRP3 inflammasome” for “NFkappaB”, “reduction in IL-1beta expression” for “inhibition of NFkappaB degradation”; format: functional; settings: dose 5-20 mg/kg, route po, time 3.0 day
Mus musculus [34] = assay: as §2, with “TNF-alpha” for “IL-6”, “BALF” for “serum”; format: functional, organism-based; settings: dose 5-20 mg/kg, time 3.0 day
[35] = molecular target: NACHT, LRR and PYD domains-containing protein 3 (Mus musculus) (UniProt Q8R4B8); assay: Inhibition of NLRP3 inflammasome activation in LPS-stimulated mouse RAW264.7 cells assessed as downregulation of NLRP3 expression by Western blot analysis; format: cell-based; settings: dose 2.5-10 µM
Mus musculus [36] = assay: Anti-inflammatory activity in LPS-induced BALB/c mouse model of […] assessed as inhibition of iNOS expression preadministered orally with compound for 3 days followed by LPS stimulation for 6 hrs after 1 hrs compound administration on day 3 by Western blot analysis; format: functional, organism-based; settings: dose 5-20 mg/kg, route po, time 3.0 day

CC(=O)O[C@H]1C[C@@]2(C)[C@@H](C[C@@H](O)[C@H]3[C@@]4(C)CC[C@@H](O)[C@@H](C)[C@@H]4CC[C@@]32C)/C1=C(\CCC=C(C)C)C(=O)OCc1cn(-c2ccccc2)nn1
inhibition (Mus musculus [1]): Dose-Dependent Effect | inhibition (RAW264.7 [2]): Active | Activity (Mus musculus [3]): Active | inhibition (Mus musculus [4]): Dose-Dependent Effect | Activity (RAW264.7 [5]): 102.79% | Activity (Mus musculus [6]): Dose-Dependent Effect | inhibition (RAW264.7 [7]): Active | inhibition (Mus musculus [8]): Dose-Dependent Effect | inhibition (RAW264.7 [9]): Active | IC50 (RAW264.7 [10]): 1.85 µM | inhibition [11]: Active | inhibition (Mus musculus [12]): Dose-Dependent Effect | inhibition [13]: Dose-Dependent Effect | Activity (RAW264.7 [14]): Active | Activity (RAW264.7 [15]): Dose-Dependent Effect | Activity (RAW264.7 [16]): Dose-Dependent Effect | IC50 (RAW264.7 [17]): 3.26 µM | IC50 at 24 h [18]: 94.3 µM | Activity (Mus musculus [19]): Active | inhibition (RAW264.7 [20]): Active | Activity (Mus musculus [21]): Active | Activity (RAW264.7 [22]): Dose-Dependent Effect | Activity (Mus musculus [23]): Active | Activity (Mus musculus [24]): Active | inhibition (RAW264.7 [25]): Active | inhibition (Mus musculus [26]): Dose-Dependent Effect | Activity (Mus musculus [27]): Active | IC50 (RAW264.7 [28]): 3.88 µM | inhibition (Mus musculus [29]): Dose-Dependent Effect | inhibition (Mus musculus [30]): Dose-Dependent Effect | Activity (Mus musculus [31]): Active | Activity (Mus musculus [32]): Active | inhibition (Mus musculus [33]): Dose-Dependent Effect | Activity (Mus musculus [34]): Active | inhibition [35]: Dose-Dependent Effect | Activity (Mus musculus [36]): Dose-Dependent Effect
